What was measured:
[1] = biological target: T1, CDK1/CycB (Homo sapiens, UniProt P06493); test: CDK1/CycB kinase assay (Assay 1); type: biochemical; conditions: 0.5 μM ATP, histon IIIS, 10 min 22° C.; read-out: CDK1/CycB (Assay 1) Concentration for half-maximal inhibition of the enzyme activity, IC50
T1 construct: purchased ProQinase GmbH, Freiburg, Germany; host or cells: baculovirus-infected insect cells (Sf9)
Protocol: Recombinant CDK1 and CycB-GST fusion proteins, purified from baculovirus-infected insect cells (Sf9), were purchased from ProQinase GmbH, Freiburg, Germany. The histon HIS used as kinase substrate is commercially available from Sigma.
CDK1/CycB (200 ng/measuring point) was incubated for 10 min at 22° C. in the presence of various concentrations of test substances (0 μM, and within the range 0.01-100 μM) in assay buffer [50 mM Tris/HCl pH8.0, 10 mM MgCl2, 0.1 mM Na ortho-vanadate, 1.0 mM dithiothreitol, 0.5 μM adenosine triphosphate (ATP), 10 μg/measuring point histon IIIS, 0.2 μCi/measuring point ^33P-gamma ATP, 0.05% NP40, 1.25% dimethyl sulfoxide]. The reaction was stopped by adding EDTA solution (250 mM, pH 8.0, 15 μl/measuring point).
(§1) From each reaction mixture, 15 μl were applied to P30 filter strips (from Wallac), and unincorporated ^33P-ATP was removed by washing the filter strips three times, for 10 min each time, in 0.5% phosphoric acid. After drying the filter strips for 1 hour at 70° C., the filter strips were covered with scintillator strips (MeltiLex™ A, from Wallac) and stoved for 1 hour at 90° C. The amount of incorporated ^33P (substrate phosphorylation) was determined by scintillation measurement in a gamma-radiation measuring instrument (Wallac). The measured data were standardized to 0% inhibition (enzyme reaction without inhibitor) and 100% inhibition (all assay components except enzyme). The IC50 values were determined by means of a 4-parameter fit using the company's own software.

[2] = biological target: T2, CDK2/CycE (Homo sapiens, UniProt P24941); test: CDK2/CycE kinase assay (Assay 2); type: biochemical; conditions: 0.5 μM ATP, histon IIIS, 10 min 22° C.; read-out: CDK2/CycE (Assay 2) Concentration for half-maximal inhibition of the enzyme activity, IC50
T2 construct: purchased ProQinase GmbH, Freiburg, Germany; host or cells: baculovirus-infected insect cells (Sf9)
Protocol: Recombinant CDK2 and CycE-GST fusion proteins, purified from baculovirus-infected insect cells (Sf9), were purchased from ProQinase GmbH, Freiburg, Germany. Histon HIS, used as kinase substrate, was purchased from Sigma.
The reaction was stopped by adding EDTA solution (250 mM, pH 8.0, 15 μl/measuring point).
as §1, with “μl was” for “μl were”, “(Wallac). […]” for “(Wallac). The measured data were standardized to 0% inhibition (enzyme reaction without inhibitor) and 100% inhibition (all assay components except enzyme).”

[3] = biological target: T3, VEGF receptor tyrosine kinase-2 (VEGF-R2) (Homo sapiens, UniProt P35968); test: VEGF receptor-2 kinase assay (Assay 3); type: biochemical; conditions: 8 μM ATP, poly-(Glu4Tyr), 10 min 22° C.; read-out: VEGF-R2 (Assay 3) Concentration for half-maximal inhibition of the enzyme activity, IC50
T3 construct: GST; made in house; host or cells: baculovirus-infected insect cells (Sf9)
Protocol: Recombinant VEGF receptor tyrosine kinase-2 was purified as GST fusion protein from baculovirus-infected insect cells (Sf9). Poly-(Glu4Tyr), used as kinase substrate, was purchased from Sigma.
VEGF receptor tyrosine kinase (90 ng/measuring point) was incubated for 10 min at 22° C. in the presence of various concentrations of test substances (0 μM, and within the range 0.001-30 μM) in 30 μl assay buffer [40 mM Tris/HCl pH5.5, 10 mM MgCl2, 1 mM MnCl2, 3 μM Na ortho-vanadate, 1.0 mM dithiothreitol, 8 μM adenosine triphosphate (ATP), 0.96 μg/measuring point poly-(Glu4Tyr), 0.2 μCi/measuring point ^33P-gamma ATP, 1.4% dimethyl sulfoxide]. The reaction was stopped by adding EDTA solution (250 mM, pH 8.0, 15 μl/measuring point).
as §1, with “μl was” for “μl were”

[4] = tested on: HeLa-MaTu; test: Proliferation assay HeLa-MaTu; type: cell-based, human; conditions: cervix carcinoma, 4 days, crystal violet
Protocol: (§2) Cultivated human tumor cells (originally obtained from ATCC, HeLa-MaTu and HeLa-MaTu-ADR, originally obtained from Epo GmbH, Berlin, Germany) were plated at a density of 1000 to 5000 cells/measuring point, depending on the growth rate of the cell line, in a 96-well multititer plate in 200 μl of growth medium (DMEM/HAMS F12, 2 mM L-glutamine, 10% fetal calf serum). After 24 hours the cells of one plate (zero-point plate) were stained with crystal violet (see below), whereas the medium of the other plates was replaced with fresh culture medium (200 μl), to which the test substances had been added at various concentrations (0 μM, and in the range 0.01-30 μM; the final concentration of the solvent dimethyl sulfoxide was 0.5%). The cells were incubated for 4 days in the presence of the test substances. Cellular proliferation was determined by staining the cells with crystal violet: the cells were fixed by adding 20 μl/measuring point of an 11% glutaraldehyde solution for 15 min at room temperature. After washing the fixed cells with water three times, the plates were dried at room temperature. The cells were stained by adding 100 μl/measuring point of a 0.1% crystal violet solution (pH adjusted to pH3 by adding acetic acid). After washing the stained cells with water three times, the plates were dried at room temperature. The dye was dissolved by adding 100 μl/measuring point of a 10% acetic acid solution. The extinction was determined photometrically at a wavelength of 595 nm. The percentage change in cell growth was calculated by standardization of the measured values to the extinction values of the zero-point plate (=0%) and the extinction of the untreated (0 μM) cells (=100%). The measured data were standardized to 0% inhibition (cell proliferation without inhibitor) and 100% inhibition (zero-point plate). The IC50 values were determined by means of a 4-parameter fit using the company's own software.
(§3) The substances were examined in the following cell lines which, in an exemplary manner, represent the stated indications: […]

[5] = tested on: SW480; test: Proliferation assay SW480; type: cell-based; conditions: Homo sapiens, 96 h; SW480, colon/rectum carcinoma; 4 days, crystal violet
Protocol: as §2, §3

[6] = tested on: HCT116; test: Proliferation assay HCT116; type: cell-based; conditions: Homo sapiens, HCT-116, 96 h; HCT116, colon/rectum carcinoma; 4 days, crystal violet
Protocol: as §2, §3

[7] = tested on: HeLa; test: Proliferation assay HeLa; type: cell-based; conditions: Homo sapiens, 96 h, cervix carcinoma, 4 days, crystal violet
Protocol: as §2, §3

[8] = tested on: MCF7; test: Proliferation assay MCF7; type: cell-based, human; conditions: MCF7, estrogen receptor-positive mamma carcinoma, 4 days, crystal violet
Protocol: as §2, §3

[9] = tested on: Caco-2; test: Proliferation assay Caco-2; type: cell-based, human; conditions: Caco-2, colon/rectum carcinoma, 4 days, crystal violet
Protocol: as §2, §3

[10] = tested on: NCI-H460; test: Proliferation assay NCI-H460; type: cell-based, human; conditions: NCI-H460, non-small-cell bronchial carcinoma, 4 days, crystal violet
Protocol: as §2, §3

[11] = tested on: HeLa-MaTu-ADR; test: Proliferation assay HeLa-MaTu-ADR; type: cell-based, human; conditions: cervix carcinoma, 4 days, crystal violet
Protocol: as §2, §3

[12] = tested on: DU145; test: Proliferation assay DU145; type: cell-based, human; conditions: DU145, prostate carcinoma, 4 days, crystal violet
Protocol: as §2, §3

T3 sequence (P35968 20-1356, species assumed): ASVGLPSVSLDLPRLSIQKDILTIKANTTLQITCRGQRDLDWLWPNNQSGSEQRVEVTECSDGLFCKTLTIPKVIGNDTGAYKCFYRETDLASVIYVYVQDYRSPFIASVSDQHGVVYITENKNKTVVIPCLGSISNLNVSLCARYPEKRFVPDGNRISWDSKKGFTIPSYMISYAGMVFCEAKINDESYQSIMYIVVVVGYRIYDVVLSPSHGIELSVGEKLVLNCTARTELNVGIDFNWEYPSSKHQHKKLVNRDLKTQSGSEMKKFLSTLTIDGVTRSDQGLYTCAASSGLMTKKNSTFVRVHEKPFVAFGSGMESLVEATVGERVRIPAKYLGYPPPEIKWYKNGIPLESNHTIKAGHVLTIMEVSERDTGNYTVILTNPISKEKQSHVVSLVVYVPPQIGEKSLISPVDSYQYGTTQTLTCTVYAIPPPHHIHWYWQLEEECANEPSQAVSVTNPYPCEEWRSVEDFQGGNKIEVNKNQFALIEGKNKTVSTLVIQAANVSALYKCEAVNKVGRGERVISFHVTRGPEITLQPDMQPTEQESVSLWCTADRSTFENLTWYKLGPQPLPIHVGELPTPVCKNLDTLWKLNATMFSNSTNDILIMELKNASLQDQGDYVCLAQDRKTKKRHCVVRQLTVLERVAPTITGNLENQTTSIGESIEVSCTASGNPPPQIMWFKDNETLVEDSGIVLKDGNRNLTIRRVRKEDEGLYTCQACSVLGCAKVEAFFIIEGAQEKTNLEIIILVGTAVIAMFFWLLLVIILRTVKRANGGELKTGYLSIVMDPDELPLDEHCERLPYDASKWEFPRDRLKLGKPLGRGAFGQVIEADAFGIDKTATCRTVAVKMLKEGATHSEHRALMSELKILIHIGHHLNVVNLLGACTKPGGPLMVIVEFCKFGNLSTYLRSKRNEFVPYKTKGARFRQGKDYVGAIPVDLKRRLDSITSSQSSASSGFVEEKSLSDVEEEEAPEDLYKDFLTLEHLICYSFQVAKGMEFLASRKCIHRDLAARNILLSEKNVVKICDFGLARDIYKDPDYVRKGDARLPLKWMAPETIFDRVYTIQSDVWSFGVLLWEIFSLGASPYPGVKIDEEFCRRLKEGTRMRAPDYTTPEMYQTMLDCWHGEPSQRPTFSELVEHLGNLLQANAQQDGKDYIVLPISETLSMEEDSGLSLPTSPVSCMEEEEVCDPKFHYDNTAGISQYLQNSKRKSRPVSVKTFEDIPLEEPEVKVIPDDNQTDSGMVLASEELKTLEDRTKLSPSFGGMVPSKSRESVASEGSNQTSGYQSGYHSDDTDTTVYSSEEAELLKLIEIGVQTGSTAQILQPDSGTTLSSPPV
T1 sequence (P06493 whole entry): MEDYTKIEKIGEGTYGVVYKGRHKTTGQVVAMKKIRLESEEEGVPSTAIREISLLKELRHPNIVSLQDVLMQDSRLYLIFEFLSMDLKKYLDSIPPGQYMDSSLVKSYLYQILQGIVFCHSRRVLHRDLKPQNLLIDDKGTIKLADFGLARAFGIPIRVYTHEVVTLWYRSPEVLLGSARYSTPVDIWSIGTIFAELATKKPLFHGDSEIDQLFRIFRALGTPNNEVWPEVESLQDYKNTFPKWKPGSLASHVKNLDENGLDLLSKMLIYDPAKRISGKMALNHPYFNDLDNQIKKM
T1 sequence (P14635 whole entry partner): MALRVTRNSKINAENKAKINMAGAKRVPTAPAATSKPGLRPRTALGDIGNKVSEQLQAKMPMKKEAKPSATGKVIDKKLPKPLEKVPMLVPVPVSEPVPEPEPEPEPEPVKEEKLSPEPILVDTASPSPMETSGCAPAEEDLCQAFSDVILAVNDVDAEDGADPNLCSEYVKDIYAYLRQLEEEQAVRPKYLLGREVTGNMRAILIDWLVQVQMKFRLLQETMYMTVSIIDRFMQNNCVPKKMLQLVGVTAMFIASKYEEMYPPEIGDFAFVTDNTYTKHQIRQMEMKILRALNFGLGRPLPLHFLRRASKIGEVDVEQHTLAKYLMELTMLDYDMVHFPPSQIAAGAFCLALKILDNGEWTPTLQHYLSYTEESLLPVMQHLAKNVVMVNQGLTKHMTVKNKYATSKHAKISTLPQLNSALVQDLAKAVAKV

C[C@@H](O)[C@@H](C)Oc1nc(Nc2ccc(S(C)(=N)=O)cc2)ncc1C(F)(F)F (single isomer, unassigned) [Example 2-SI-1]
IC50 [1]: 5 nM
IC50 [2]: 6 nM
IC50 [3]: 84 nM
IC50 ([4]; Homo sapiens, 96 h): 12 nM

C[C@@H](O)[C@@H](C)Nc1nc(Nc2ccc(S(C)(=N)=O)cc2)ncc1C(F)(F)F (single isomer, unassigned) [Example 8-SI-2]
IC50 [1]: 3 nM
IC50 [2]: 4 nM
IC50 [3]: 81 nM
IC50 [5]: 31 nM
IC50 [6]: 17 nM
IC50 [7]: 25 nM

C[C@@H](O)[C@@H](C)Nc1nc(Nc2ccc(S(C)(=N)=O)cc2)ncc1C(F)(F)F (single isomer, unassigned) [Example 8-SI-1]
IC50 [1]: 11 nM
IC50 [2]: 6 nM
IC50 [3]: 116 nM
IC50 ([8]; Homo sapiens, MCF7, 96 h): 44 nM
IC50 ([9]; Homo sapiens, Caco-2, 96 h): 32 nM
IC50 ([10]; Homo sapiens, NCI-H460, 96 h): 30 nM
IC50 ([4]; Homo sapiens, 96 h): 14 nM
IC50 ([11]; Homo sapiens, 96 h): 30 nM

C[C@@H](Nc1nc(Nc2ccc(S(=N)(=O)C3CC3)cc2)ncc1C(F)(F)F)C(C)(C)O (mixture of isomers) [Example 5-SI-2, (RS)—S-Cyclopropyl-S-(4-{[4-{[(R)-2-hydroxy-1,2-dimethylpropyl]amino}-5-(trifluoromethyl)-pyrimidin-2-yl]amino}phenyl)sulfoximide]
IC50 [1]: 9 nM
IC50 [2]: 8 nM
IC50 [3]: 82 nM
IC50 [8]: 34 nM
IC50 [9]: 42 nM
IC50 [6]: 28 nM
IC50 [12]: 26 nM
IC50 [10]: 33 nM
IC50 [7]: 50 nM
IC50 [4]: 10 nM
IC50 [11]: 24 nM

CCS(=N)(=O)c1ccc(Nc2ncc(C(F)(F)F)c(N[C@H](C)[C@@H](C)O)n2)cc1 (mixture of isomers) [Example 6-SI-2, (RS)—S-Ethyl-S-(4-{[4-{[(1R,2R)-2-hydroxy-1-methylpropyl]amino}-5-(trifluoromethyl)-pyrimidin-2-yl]amino}phenyl)sulfoximide]
IC50 [1]: 5 nM
IC50 [2]: 5 nM
IC50 [3]: 71 nM
IC50 [8]: 26 nM
IC50 [9]: 26 nM
IC50 [6]: 24 nM
IC50 ([12]; Homo sapiens, DU-145, 96 h): 197 nM
IC50 [10]: 24 nM
IC50 [7]: 32 nM
IC50 ([4]; Homo sapiens, 96 h): 10 nM
IC50 ([11]; Homo sapiens, 96 h): 18 nM

CCS(=N)(=O)c1ccc(Nc2ncc(C(F)(F)F)c(N[C@H](C)C(C)(C)O)n2)cc1 (single isomer, unassigned) [Example 7-SI-2]
IC50 [1]: 7 nM
IC50 [2]: 5 nM
IC50 [3]: 136 nM
IC50 [5]: 45 nM
IC50 [6]: 17 nM
IC50 [7]: 33 nM

C[C@@H](Nc1nc(Nc2ccc(S(C)(=N)=O)cc2)ncc1C(F)(F)F)C(C)(C)O (single isomer, unassigned) [Example 9-SI-1]
IC50 [1]: 4 nM
IC50 [2]: 5 nM
IC50 [3]: 158 nM
IC50 ([4]; Homo sapiens, 96 h): 20 nM

C[C@@H](Oc1nc(Nc2ccc(S(C)(=N)=O)cc2)ncc1C(F)(F)F)C(C)(C)O (mixture of isomers) [Example 3, (RS)—S-(4-{[4-{[(R)-2-Hydroxy-1,2-dimethylpropyl]oxy}-5-(trifluoromethyl)pyrimidin-2-yl]-amino}phenyl)-S-methylsulfoximide]
IC50 [1]: 13 nM
IC50 [2]: 10 nM
IC50 ([8]; Homo sapiens, MCF7, 96 h): 70 nM
IC50 ([9]; Homo sapiens, Caco-2, 96 h): 98 nM
IC50 ([12]; Homo sapiens, DU-145, 96 h): 76 nM
IC50 ([10]; Homo sapiens, NCI-H460, 96 h): 113 nM
IC50 ([4]; Homo sapiens, 96 h): 70 nM
IC50 ([11]; Homo sapiens, 96 h): 63 nM

C[C@@H](Nc1nc(Nc2ccc(S(=N)(=O)C3CC3)cc2)ncc1C(F)(F)F)C(C)(C)O (mixture of isomers) [Example 5-SI-1, (RS)—S-Cyclopropyl-S-(4-{[4-{[(R)-2-hydroxy-1,2-dimethylpropyl]amino}-5-(trifluoromethyl)-pyrimidin-2-yl]amino}phenyl)sulfoximide]
IC50 [1]: 25 nM
IC50 [2]: 8 nM
IC50 [3]: 70 nM
IC50 ([8]; Homo sapiens, MCF7, 96 h): 33 nM
IC50 [9]: 112 nM
IC50 [12]: 107 nM
IC50 [10]: 70 nM
IC50 [4]: 22 nM
IC50 [11]: 63 nM
